± gives the standard deviation of the averaged measurements.
Legend:
RESVERATROL = compound: Oc1ccc(/C=C/c2cc(O)cc(O)c2)cc1 [RESVERATROL]; assay: surviving fraction relative to DMSO-only wells; higher = less growth inhibition; conditions: exposure time: 5 days
Method in brief: (§1)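 Tumour cell lines in log phase were plated in 384-well plates at 250–500 cells per well, then, after 24 hours, exposed continuously for five days to inhibitors at 0.5, 1, 5, 10, 50, 100, 500 and 1000 nM. Viability came from CellTiter-Glo luminescence, and surviving fraction is that signal normalised to the median of DMSO-only wells. Plates were read after 10 minutes at room temperature, and each line, screened three times, was kept only when replicate Pearson r was >0.7 and median Z' was >0.3.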

FLUOROURACIL = compound: O=c1[nH]cc(F)c(=O)[nH]1 [FLUOROURACIL]; assay: as above; conditions: exposure time: 5 days
Method in brief: as §1

Row | Test System | surviving fraction (RESVERATROL; 0.5 nM) | surviving fraction (RESVERATROL; 1 nM) | surviving fraction (RESVERATROL; 5 nM) | surviving fraction (RESVERATROL; 10 nM) | surviving fraction (RESVERATROL; 50 nM) | surviving fraction (RESVERATROL; 100 nM) | surviving fraction (RESVERATROL; 500 nM) | surviving fraction (RESVERATROL; 1000 nM) | surviving fraction (FLUOROURACIL; 0.5 nM) | surviving fraction (FLUOROURACIL; 1 nM) | surviving fraction (FLUOROURACIL; 5 nM) | surviving fraction (FLUOROURACIL; 10 nM) | surviving fraction (FLUOROURACIL; 50 nM) | surviving fraction (FLUOROURACIL; 100 nM) | surviving fraction (FLUOROURACIL; 500 nM) | surviving fraction (FLUOROURACIL; 1000 nM)
1 | ZR751 BREAST | 0.956 ± 0.028 | 1.08 ± 0.069 | 0.95 ± 0.07 | 1.01 ± 0.037 | 1.01 ± 0.1 | 1.03 ± 0.1 | 0.957 ± 0.045 | 1.12 ± 0.088 | 1.21 ± 0.13 | 1.26 ± 0.11 | 0.966 ± 0.051 | 1.12 ± 0.18 | 1.04 ± 0.12 | 1.1 ± 0.16 | 0.974 ± 0.072 | 0.81 ± 0.083
2 | 22RV1 PROSTATE | 1.01 ± 0.05 | 1.04 ± 0.076 | 1.05 ± 0.067 | 1.04 ± 0.024 | 0.981 ± 0.015 | 1.09 ± 0.032 | 0.961 ± 0.12 | 1.05 ± 0.079 | 1.07 ± 0.11 | 0.936 ± 0.068 | 1.1 ± 0.11 | 0.946 ± 0.13 | 1.09 ± 0.053 | 1.104 ± 0.011 | 0.957 ± 0.15 | 0.705 ± 0.18
3 | HT1080 SOFT TISSUE | 1.03 ± 0.031 | 1.03 ± 0.019 | 0.995 ± 0.024 | 1.04 ± 0.033 | 0.984 ± 0.017 | 1.03 ± 0.03 | 1.05 ± 0.013 | 1.1 ± 0.015 | 1.06 ± 0.016 | 1.087 ± 0.0087 | 1.07 ± 0.0075 | 1.07 ± 0.029 | 0.965 ± 0.061 | 0.991 ± 0.021 | 0.637 ± 0.063 | 0.406 ± 0.019
4 | SG28 HEADNECK | 1.03 ± 0.12 | 1.07 ± 0.1 | 1.15 ± 0.11 | 1 ± 0.057 | 1.01 ± 0.005 | 1 ± 0.051 | 1.06 ± 0.053 | 1.03 ± 0.2 | 1.04 ± 0.056 | 1.08 ± 0.056 | 0.944 ± 0.078 | 1.06 ± 0.036 | 0.756 ± 0.013 | 0.756 ± 0.12 | 0.781 ± 0.059 | 0.693 ± 0.068
5 | MG63 BONE | 1.01 ± 0.038 | 1.06 ± 0.048 | 1.07 ± 0.035 | 1.15 ± 0.021 | 1.04 ± 0.024 | 1.11 ± 0.029 | 1.03 ± 0.023 | 1.05 ± 0.031 | 1.02 ± 0.041 | 1 ± 0.028 | 1.05 ± 0.021 | 1.03 ± 0.019 | 1.06 ± 0.024 | 0.99 ± 0.023 | 0.947 ± 0.024 | 0.805 ± 0.013
6 | NCIH441 LUNG | 1.14 ± 0.074 | 1.08 ± 0.12 | 1.1 ± 0.099 | 1.18 ± 0.09 | 1.09 ± 0.029 | 1.15 ± 0.087 | 1.1 ± 0.025 | 1.17 ± 0.026 | 1.08 ± 0.054 | 1.05 ± 0.076 | 1.06 ± 0.11 | 1.1 ± 0.021 | 0.996 ± 0.16 | 0.95 ± 0.18 | 0.998 ± 0.1 | 0.798 ± 0.11
7 | COLO320DM LARGE INTESTINE | 1.06 ± 0.14 | 1 ± 0.062 | 1.07 ± 0.081 | 1.07 ± 0.04 | 1.03 ± 0.063 | 1.15 ± 0.086 | 1.08 ± 0.077 | 1.12 ± 0.031 | 1.07 ± 0.14 | 1.06 ± 0.051 | 1.09 ± 0.019 | 1.05 ± 0.1 | 0.988 ± 0.083 | 0.863 ± 0.053 | 0.492 ± 0.035 | 0.347 ± 0.023
8 | HCC1954 BREAST | 1.06 ± 0.055 | 1.12 ± 0.012 | 1.21 ± 0.065 | 1.39 ± 0.098 | 1.03 ± 0.025 | 1.25 ± 0.19 | 0.997 ± 0.065 | 0.934 ± 0.064 | 1.13 ± 0.31 | 1.21 ± 0.17 | 1.13 ± 0.07 | 1.26 ± 0.21 | 0.572 ± 0.11 | 0.629 ± 0.063 | 0.681 ± 0.095 | 0.571 ± 0.018
9 | SIHA CERVIX | 1.02 ± 0.034 | 1.05 ± 0.041 | 1.116 ± 0.011 | 1.14 ± 0.066 | 1.07 ± 0.072 | 1.09 ± 0.045 | 1.09 ± 0.066 | 1.15 ± 0.02 | 1.01 ± 0.043 | 0.989 ± 0.052 | 1.06 ± 0.011 | 1.08 ± 0.066 | 0.999 ± 0.051 | 0.957 ± 0.073 | 0.915 ± 0.13 | 1.02 ± 0.097
10 | HELA CERVIX | 1.04 ± 0.034 | 1.12 ± 0.036 | 1.06 ± 0.096 | 1.08 ± 0.023 | 1.09 ± 0.066 | 1.12 ± 0.037 | 1.12 ± 0.092 | 1.21 ± 0.066 | 1.07 ± 0.017 | 0.993 ± 0.031 | 0.997 ± 0.019 | 1.03 ± 0.037 | 1.01 ± 0.062 | 1.06 ± 0.027 | 1.3 ± 0.035 | 1.15 ± 0.096
11 | CAL72 BONE | 1.07 ± 0.057 | 1.06 ± 0.084 | 1.05 ± 0.073 | 1.05 ± 0.12 | 1.05 ± 0.055 | 1.08 ± 0.1 | 1.04 ± 0.082 | 1.04 ± 0.12 | 1.07 ± 0.014 | 1.056 ± 0.0093 | 1.03 ± 0.051 | 1.05 ± 0.039 | 1.02 ± 0.037 | 0.944 ± 0.093 | 0.955 ± 0.16 | 0.751 ± 0.16
12 | MDAMB468 BREAST | 1.05 ± 0.11 | 1.13 ± 0.08 | 1.06 ± 0.059 | 1.07 ± 0.05 | 1.02 ± 0.047 | 1.14 ± 0.037 | 1.07 ± 0.053 | 1.09 ± 0.06 | 0.887 ± 0.039 | 0.885 ± 0.095 | 0.919 ± 0.064 | 0.89 ± 0.058 | 0.881 ± 0.12 | 0.816 ± 0.06 | 0.859 ± 0.076 | 0.706 ± 0.097
13 | LM7 BONE | 1.05 ± 0.036 | 1.05 ± 0.025 | 1.1 ± 0.045 | 1.18 ± 0.061 | 1.07 ± 0.067 | 1.15 ± 0.054 | 1.04 ± 0.034 | 1.12 ± 0.048 | 0.976 ± 0.039 | 0.992 ± 0.027 | 1.05 ± 0.043 | 1.01 ± 0.047 | 0.851 ± 0.057 | 0.856 ± 0.077 | 0.73 ± 0.079 | 0.628 ± 0.083
14 | 143B BONE | 0.925 ± 0.14 | 1.07 ± 0.016 | 1.01 ± 0.021 | 1.065 ± 0.0021 | 0.885 ± 0.19 | 0.947 ± 0.17 | 1.01 ± 0.037 | 1.11 ± 0.057 | 1.12 ± 0.15 | 1.11 ± 0.079 | 1.14 ± 0.11 | 1.11 ± 0.094 | 1.14 ± 0.17 | 1.12 ± 0.13 | 1.1 ± 0.12 | 0.929 ± 0.029
15 | CADOES1 SOFT TISSUE | 0.972 ± 0.09 | 0.939 ± 0.14 | 0.952 ± 0.047 | 0.931 ± 0.074 | 0.993 ± 0.023 | 1.02 ± 0.061 | 0.991 ± 0.017 | 1.02 ± 0.068 | 0.969 ± 0.035 | 0.925 ± 0.057 | 0.907 ± 0.13 | 0.963 ± 0.097 | 0.968 ± 0.03 | 0.912 ± 0.098 | 0.905 ± 0.055 | 0.775 ± 0.081
16 | NOS1 BONE | 1.08 ± 0.18 | 0.975 ± 0.046 | 1.07 ± 0.028 | 1.137 ± 0.0086 | 1.21 ± 0.22 | 1.35 ± 0.13 | 1.16 ± 0.032 | 1.17 ± 0.053 | 1.01 ± 0.032 | 1.01 ± 0.14 | 1.09 ± 0.12 | 1.14 ± 0.11 | 0.91 ± 0.12 | 0.943 ± 0.073 | 0.799 ± 0.065 | 0.694 ± 0.081
17 | MDAMB231 BREAST | 0.97 ± 0.01 | 0.996 ± 0.013 | 0.9638 ± 0.0043 | 0.993 ± 0.016 | 0.9694 ± 0.0024 | 0.998 ± 0.012 | 0.993 ± 0.012 | 1.03 ± 0.053 | 0.978 ± 0.019 | 0.947 ± 0.014 | 0.975 ± 0.039 | 0.972 ± 0.022 | 0.961 ± 0.035 | 0.914 ± 0.041 | 0.986 ± 0.021 | 0.865 ± 0.022
18 | HSSYII SYNOVIAL | 0.951 ± 0.067 | 1.01 ± 0.029 | 1.01 ± 0.015 | 0.995 ± 0.016 | 0.967 ± 0.04 | 0.971 ± 0.079 | 0.9 ± 0.03 | 0.917 ± 0.043 | 0.933 ± 0.045 | 0.938 ± 0.078 | 0.992 ± 0.075 | 0.949 ± 0.043 | 0.942 ± 0.016 | 0.911 ± 0.059 | 0.906 ± 0.028 | 0.853 ± 0.02
19 | S68 BREAST | 0.829 ± 0.095 | 0.815 ± 0.21 | 0.993 ± 0.36 | 0.818 ± 0.095 | 1.14 ± 0.17 | 1 ± 0.059 | 1.1 ± 0.12 | 0.878 ± 0.066 | 1.06 ± 0.15 | 1.14 ± 0.31 | 1.06 ± 0.29 | 1.23 ± 0.21 | 0.87 ± 0.13 | 0.749 ± 0.034 | 0.656 ± 0.16 | 0.465 ± 0.061
